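Dose response: 5 concentrations. Exposure: 48 h. Format: 96-well plates. Endpoint: linear interpolation; highest concentration if not reached. TGI: total growth inhibition.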
Columns and labels:
Assay in all cases: growth of human tumour cells (NCI), 48 h
[1] = tested on: RXF 393 renal
[2] = tested on: SR leukemia
[3] = tested on: U251 CNS
[4] = tested on: A498 renal
[5] = tested on: 786-0 renal
[6] = tested on: MDA-MB-231 breast
[7] = tested on: ACHN renal
[8] = tested on: SNB-75 CNS
[9] = tested on: NCI-H23 lung
[10] = tested on: LOX IMVI melanoma
[11] = tested on: UACC-257 melanoma
[12] = tested on: DU-145 prostate
[13] = tested on: TK-10 renal
[14] = tested on: HL-60(TB) leukemia
[15] = tested on: T-47D breast
[16] = tested on: MALME-3M melanoma
[17] = tested on: NCI/ADR-RES ovarian
[18] = tested on: IGROV1 ovarian
[19] = tested on: MDA-N
[20] = tested on: HOP-92 NSCLC

## CCOC(=O)CC(N1CC1)N1CC1
[1]
  TGI: > 10 µM
[2]
  TGI: > 10 µM
[3]
  TGI: > 10 µM
[4]
  TGI: > 10 µM
[5]
  TGI: > 10 µM
[6]
  TGI: > 10 µM
[7]
  TGI: > 10 µM
[8]
  TGI: > 10 µM
[9]
  TGI: > 10 µM
[10]
  TGI: > 10 µM
[11]
  TGI: > 10 µM
[12]
  TGI: > 10 µM
[13]
  TGI: > 10 µM
[14]
  TGI: > 10 µM
[15]
  TGI: > 10 µM
[16]
  TGI: > 10 µM
[17]
  TGI: > 10 µM
[18]
  TGI: > 10 µM
[19]
  TGI: > 10 µM

## COc1ccc(-n2c(=O)n(C)c(=O)n2-c2c(C)c(C)c(C)c(C)c2C)cc1
[1]
  TGI: > 100 µM
[3]
  TGI: > 100 µM
[4]
  TGI: > 100 µM
[5]
  TGI: > 100 µM
[6]
  TGI: > 100 µM
[7]
  TGI: > 100 µM
[8]
  TGI: > 100 µM
[9]
  TGI: > 100 µM
[10]
  TGI: > 100 µM
[20]
  TGI: > 100 µM
[11]
  TGI: > 100 µM
[12]
  TGI: > 100 µM
[13]
  TGI: > 100 µM
[15]
  TGI: > 100 µM
[16]
  TGI: > 100 µM
[17]
  TGI: > 100 µM
[18]
  TGI: > 100 µM
[19]
  TGI: > 100 µM

## FC(F)(F)C1(C(F)(F)F)C2CCC3(CC(F)(F)C(F)(F)S3)C1C2 (centres undefined)
[1]
  TGI: 84.3 µM
[2]
  TGI: 44.1 µM
[3]
  TGI: > 100 µM
[4]
  TGI: > 100 µM
[5]
  TGI: > 100 µM
[6]
  TGI: > 100 µM
[7]
  TGI: 98.5 µM
[8]
  TGI: > 100 µM
[9]
  TGI: > 100 µM
[10]
  TGI: 47.4 µM
[11]
  TGI: 74.3 µM
[12]
  TGI: > 100 µM
[13]
  TGI: > 100 µM
[14]
  TGI: 51.8 µM
[15]
  TGI: > 100 µM
[16]
  TGI: 95.1 µM
[17]
  TGI: > 100 µM
[18]
  TGI: > 100 µM
[19]
  TGI: > 100 µM

## O=C(CCc1cccc(O)c1)NCCc1cccc(OCc2ccccc2)c1
[1]
  TGI: 46.4 µM
[2]
  TGI: > 71.6 µM
[3]
  TGI: 32 µM
[4]
  TGI: > 55.2 µM
[5]
  TGI: 67.5 µM
[6]
  TGI: 40.7 µM
[7]
  TGI: > 78.3 µM
[9]
  TGI: 45.2 µM
[10]
  TGI: 29.8 µM
[20]
  TGI: 33.8 µM
[11]
  TGI: 34.2 µM
[12]
  TGI: > 80 µM
[13]
  TGI: 55.2 µM
[14]
  TGI: > 100 µM
[15]
  TGI: 55 µM
[16]
  TGI: 39.2 µM
[17]
  TGI: 41.2 µM
[18]
  TGI: 25.2 µM
[19]
  TGI: 39 µM

## CC1(C)O[C@@H](CP(c2ccccc2)c2ccccc2)[C@H](CP(c2ccccc2)c2ccccc2)O1
[1]
  TGI: 26.9 µM
[3]
  TGI: 20.2 µM
[4]
  TGI: 39.1 µM
[5]
  TGI: 22.8 µM
[6]
  TGI: 31.9 µM
[7]
  TGI: > 100 µM
[8]
  TGI: 27.9 µM
[9]
  TGI: 14.6 µM
[10]
  TGI: 17.4 µM
[20]
  TGI: 27.1 µM
[11]
  TGI: 30.7 µM
[12]
  TGI: > 100 µM
[13]
  TGI: 87 µM
[15]
  TGI: 29.8 µM
[16]
  TGI: 20.9 µM
[17]
  TGI: 36 µM
[18]
  TGI: 16.5 µM
[19]
  TGI: 11.5 µM

## O=C1CSC(/C=C/c2ccccc2)N1c1ccc(-n2c(-c3ccccc3)nc3ccccc3c2=O)cc1 (centres undefined)
[2]
  TGI: > 100 µM
[3]
  TGI: > 100 µM
[4]
  TGI: > 100 µM
[5]
  TGI: > 100 µM
[6]
  TGI: > 100 µM
[8]
  TGI: 90 µM
[9]
  TGI: > 100 µM
[10]
  TGI: > 100 µM
[20]
  TGI: > 100 µM
[11]
  TGI: > 100 µM
[12]
  TGI: > 100 µM
[13]
  TGI: > 100 µM
[14]
  TGI: > 100 µM
[15]
  TGI: > 100 µM
[16]
  TGI: > 100 µM
[17]
  TGI: > 100 µM
[18]
  TGI: > 100 µM
[19]
  TGI: > 100 µM

## NC(=O)C(=CN1CC(=O)NC1=S)C(N)=O
[1]
  TGI: > 100 µM
[3]
  TGI: > 100 µM
[4]
  TGI: > 100 µM
[5]
  TGI: > 100 µM
[6]
  TGI: > 100 µM
[7]
  TGI: > 100 µM
[8]
  TGI: > 100 µM
[9]
  TGI: > 100 µM
[10]
  TGI: > 100 µM
[20]
  TGI: > 100 µM
[11]
  TGI: > 100 µM
[12]
  TGI: > 100 µM
[13]
  TGI: > 100 µM
[14]
  TGI: > 100 µM
[15]
  TGI: > 100 µM
[17]
  TGI: > 100 µM
[18]
  TGI: > 100 µM
[19]
  TGI: > 100 µM

## O=C(NNC(=O)c1ccccc1Cl)c1ccccc1O
[1]
  TGI: > 100 µM
[2]
  TGI: > 100 µM
[3]
  TGI: > 100 µM
[4]
  TGI: > 100 µM
[5]
  TGI: > 100 µM
[6]
  TGI: > 100 µM
[8]
  TGI: > 100 µM
[10]
  TGI: > 100 µM
[11]
  TGI: > 100 µM
[12]
  TGI: > 100 µM
[13]
  TGI: > 100 µM
[15]
  TGI: > 100 µM
[16]
  TGI: > 100 µM
[17]
  TGI: > 100 µM
[18]
  TGI: > 100 µM
[19]
  TGI: > 100 µM

## COC(=O)/C(=C\C(=O)c1ccc(Br)cc1)NN=C(c1ccccc1)c1ccccc1
[1]
  TGI: > 10 µM
[2]
  TGI: > 10 µM
[5]
  TGI: > 10 µM
[6]
  TGI: > 10 µM
[8]
  TGI: > 10 µM
[9]
  TGI: > 10 µM
[10]
  TGI: > 10 µM
[20]
  TGI: > 10 µM
[11]
  TGI: > 10 µM
[12]
  TGI: > 10 µM
[13]
  TGI: > 10 µM
[14]
  TGI: > 10 µM
[15]
  TGI: > 10 µM
[16]
  TGI: > 10 µM
[18]
  TGI: > 10 µM
[19]
  TGI: > 10 µM

## Cc1cc2c(=O)[nH]nc(N)c2c(N)n1
[1]
  TGI: > 100 µM
[2]
  TGI: > 100 µM
[3]
  TGI: > 100 µM
[4]
  TGI: > 100 µM
[5]
  TGI: > 100 µM
[6]
  TGI: > 100 µM
[7]
  TGI: > 100 µM
[9]
  TGI: > 100 µM
[10]
  TGI: > 100 µM
[20]
  TGI: > 100 µM
[11]
  TGI: > 100 µM
[12]
  TGI: > 100 µM
[13]
  TGI: > 100 µM
[14]
  TGI: > 100 µM
[15]
  TGI: > 100 µM
[16]
  TGI: > 100 µM
[17]
  TGI: > 100 µM
[18]
  TGI: > 100 µM
[19]
  TGI: > 100 µM

## CC(C)(C)OC(=O)N/N=C(/N)c1ccccc1
[1]
  TGI: > 100 µM
[3]
  TGI: > 100 µM
[5]
  TGI: > 100 µM
[6]
  TGI: > 100 µM
[7]
  TGI: > 100 µM
[8]
  TGI: > 100 µM
[9]
  TGI: > 100 µM
[10]
  TGI: > 100 µM
[11]
  TGI: > 100 µM
[12]
  TGI: > 100 µM
[13]
  TGI: > 100 µM
[14]
  TGI: > 100 µM
[15]
  TGI: > 100 µM
[16]
  TGI: > 100 µM
[17]
  TGI: > 100 µM
[18]
  TGI: > 100 µM
[19]
  TGI: > 100 µM

## O=C(O)c1cc(N(Cc2ccccc2O)Cc2cc(O)ccc2O)ccc1O
[1]
  TGI: > 100 µM
[2]
  TGI: > 100 µM
[3]
  TGI: > 100 µM
[4]
  TGI: > 100 µM
[5]
  TGI: > 100 µM
[6]
  TGI: > 100 µM
[7]
  TGI: > 100 µM
[9]
  TGI: > 100 µM
[10]
  TGI: > 100 µM
[20]
  TGI: > 100 µM
[11]
  TGI: > 100 µM
[12]
  TGI: > 100 µM
[13]
  TGI: > 100 µM
[14]
  TGI: > 100 µM
[15]
  TGI: > 100 µM
[16]
  TGI: > 100 µM
[17]
  TGI: > 100 µM
[18]
  TGI: > 100 µM
[19]
  TGI: > 100 µM

## CCOC(=O)C(Cc1cn(S(=O)(=O)c2ccc(C)cc2)cn1)P(=O)(OCC)OCC (centres undefined)
[1]
  TGI: > 100 µM
[2]
  TGI: > 100 µM
[3]
  TGI: > 100 µM
[5]
  TGI: > 100 µM
[6]
  TGI: > 100 µM
[7]
  TGI: > 100 µM
[8]
  TGI: > 100 µM
[9]
  TGI: > 100 µM
[10]
  TGI: > 100 µM
[11]
  TGI: > 100 µM
[12]
  TGI: > 100 µM
[13]
  TGI: > 100 µM
[14]
  TGI: > 100 µM
[15]
  TGI: > 100 µM
[16]
  TGI: > 100 µM
[17]
  TGI: > 100 µM
[18]
  TGI: > 100 µM
[19]
  TGI: > 100 µM

Source: PubChem BioAssay (NCI)
